The values below are quoted from earlier work in patent publication US20180055752A1, “TOPICAL COMPOSITIONS TO REDUCE HAIR GROWTH” (The Regents of the University of California, priority 2016, published 2018).

SMILES strings stand for the structures. Entries after “also recorded” stand apart in the source; their conditions may differ. Where two headings read alike, the source gives them in different places.

The subject of one series is deer hair follicle. As to conditions: tolbutamide 1 mM.
In series [1] the test system is Kir6.2/SUR1 and SUR2B K-ATP channels.
For series [2] the following is noted: eight children treated for hypoglycemia of infancy.
Series [3] concerns cultured human hair follicles.

As to `COc1ccc(Cl)cc1C(=O)NCCc1ccc(S(=O)(=O)NC(=O)NC2CCCCC2)cc1` [glibenclamide], the “inhibition of hair follicle growth” value in the series with deer hair follicle (glibenclamide at a single concentration) was “did not inhibit deer hair follicle growth”. Further, in series [1], the “K-ATP channel subtype selectivity and potency” value is “nonselectively blocks both SUR1 and SUR2B forms with high affinity; also recorded: non-selectively blocks both SUR1 and SUR2B forms with high affinity”.
`CC1=NS(=O)(=O)c2cc(Cl)ccc2N1` [diazoxide]: in series [2], the “hypertrichosis as side effect” value is recorded as “all developed hypertrichosis”.
Regarding `CCCCNC(=O)NS(=O)(=O)c1ccc(C)cc1` [tolbutamide], the “effect on hair follicle growth stimulated by minoxidil / diazoxide” value in the series with deer hair follicle (10 μM minoxidil) was “abolished the effect of 10 μM minoxidil, and diazoxide”. Also, the “K-ATP channel subtype selectivity and potency” value in series [1] is “selectively inhibits Kir6.2/SUR1 K-ATP channels with low potency”; in series [1] (listed as Tolbutamide) it was “selectively inhibits Kir6.2/SUR1 KATP channels with low potency”. Besides, in series [3], the effect on anagen result is “shorten anagen”.
